According to the supplement of paper PMC10307832:

Assays:
Experiment in all cases: relative viability (nuclei count vs DMSO), 5 days (fraction); higher = more cells survive
[1] = compound: COc1cc(N2CCC(N3CCN(C)CC3)CC2)ccc1Nc1ncc(Cl)c(Nc2ccccc2S(=O)(=O)C(C)C)n1 [NVP-TAE684] + Cc1nc(Nc2ncc(C(=O)Nc3c(C)cccc3Cl)s2)cc(N2CCN(CCO)CC2)n1 [Dasatinib] (partner 0.075 µM)
Procedure, shortened: (§1)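 Lung cancer cell lines were pin-tool dosed in 1536-well plates on the day after seeding, with either a lone drug or a fixed anchor-drug dose plus five library-drug doses (not always all listed) in √10 steps. Nuclei were counted on 4× images after 5 days. Relative viability is the ratio of treated-well to vehicle-well nuclei counts, with each value a median of duplicate plates.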

[2] = compound: C#Cc1cccc(Nc2ncnc3cc(OC)c(OCCCCCCC(=O)NO)cc23)c1 [CUDC-101] + N=C(N)NC(=N)NCCc1ccccc1 [Phenformin] (partner 250 µM)
Procedure, shortened: as §1

[3] = compound: C1=CC=C2C(=C1)N=C(S2)C(C#N)C3=NC(=NC=C3)NCCC4=CN=CC=C4 + C[C@@H](Oc1cc(-c2cnn(C3CCNCC3)c2)cnc1N)c1c(Cl)ccc(F)c1Cl [Crizotinib] (partner 1 µM)
Procedure, shortened: as §1

[4] = compound: C#Cc1cccc(Nc2ncnc3cc(OC)c(OCCCCCCC(=O)NO)cc23)c1 [CUDC-101] + Nc1nc2[nH]cc(CCc3ccc(C(=O)N[C@@H](CCC(=O)O)C(=O)O)cc3)c2c(=O)[nH]1 [Pemetrexed] (partner 0.2 µM)
Procedure, shortened: as §1

Cell Line | relative viability ([1]; first compound 0.2 µM) | relative viability ([1]; first compound 0.6325 µM) | relative viability ([1]; first compound 2 µM) | relative viability ([2]; first compound 0.01 µM) | relative viability ([2]; first compound 0.03162 µM) | relative viability ([2]; first compound 0.1 µM) | relative viability ([2]; first compound 0.3162 µM) | relative viability ([2]; first compound 1 µM) | relative viability ([3]; first compound 0.005 µM) | relative viability ([3]; first compound 0.01581 µM) | relative viability ([3]; first compound 0.05 µM) | relative viability ([3]; first compound 0.1581 µM) | relative viability ([3]; first compound 0.5 µM) | relative viability ([4]; first compound 0.01 µM) | relative viability ([4]; first compound 0.03162 µM) | relative viability ([4]; first compound 0.1 µM) | relative viability ([4]; first compound 0.3162 µM) | relative viability ([4]; first compound 1 µM)
PC-3 [JPC-3] | 0.942 | 0.979 | 0.649 | 0.484 | 0.486 | 0.362 | 0.402 | 0.351 | 0.712 | 1.07 | 1.01 | 0.948 | 0.846 | 1.12 | 1.06 | 0.842 | 0.439 | 0.393
IA-LM | – | – | – | – | – | – | – | – | – | 0.985 | 0.922 | 0.808 | 0.808 | – | – | – | – | –
NCI-H520 | 0.17 | 0.196 | 0.139 | 0.55 | 0.494 | 0.576 | 0.581 | 0.247 | 0.564 | 0.856 | 0.947 | 0.882 | 0.569 | 0.711 | 0.755 | 0.774 | 0.608 | 0.342
A549 | – | – | – | 0.172 | 0.192 | 0.143 | 0.158 | 0.141 | 0.539 | 0.795 | 0.837 | 0.705 | 0.554 | – | – | – | – | –
BEN | 0.37 | 0.287 | 0.28 | 0.29 | 0.259 | 0.239 | 0.256 | 0.209 | 0.668 | 0.924 | 0.82 | 0.785 | 0.806 | 0.812 | 0.727 | 0.78 | 0.703 | 0.769
COR-L 105 | 0.256 | 0.202 | 0.204 | 0.627 | 0.481 | 0.447 | 0.528 | 0.198 | 0.679 | 0.815 | 0.699 | 0.628 | 0.728 | 1.04 | 0.967 | 1.1 | 1.12 | 0.931
NCI-H1734 | 0.47 | 0.362 | 0.194 | 0.362 | 0.419 | 0.425 | 0.448 | 0.29 | 0.555 | 0.734 | 0.684 | 0.693 | 0.741 | 0.414 | 0.407 | 0.392 | 0.465 | 0.39
LOU-NH91 | 0.544 | 0.453 | 0.231 | 0.736 | 0.56 | 0.534 | 0.587 | 0.393 | 0.709 | 0.786 | 0.689 | 0.695 | 0.685 | 0.411 | 0.414 | 0.421 | 0.315 | 0.341
NCI-H2405 | 0.226 | 0.178 | 0.154 | 0.392 | 0.37 | 0.442 | 0.397 | 0.352 | 0.819 | 0.915 | 0.872 | – | 0.809 | 1.07 | 1 | 1.05 | 1.17 | 0.967
HCC-15 | 0.542 | 0.435 | 0.28 | 0.434 | 0.432 | 0.521 | 0.556 | 0.376 | 0.734 | 0.851 | 0.833 | 1.02 | 0.776 | 0.212 | 0.244 | 0.226 | 0.217 | 0.198
HCC-44 | – | – | – | 0.163 | 0.185 | 0.22 | 0.185 | 0.139 | 0.753 | 0.837 | 0.826 | 0.875 | 0.69 | 0.629 | 0.657 | 0.71 | 0.645 | 0.693
NCI-H1792 | 0.623 | 0.76 | 0.25 | 0.323 | 0.332 | – | 0.145 | 0.277 | – | 1.08 | 0.997 | 1.33 | 0.616 | 0.856 | 0.787 | 0.915 | 0.721 | 0.581
NCI-H2347 | 0.501 | 0.307 | 0.293 | 0.446 | 0.299 | 0.308 | 0.512 | 0.371 | 0.724 | 0.669 | 0.533 | 0.699 | 0.723 | 0.458 | 0.418 | 0.434 | 0.479 | 0.405
SW 900 | 0.739 | 0.414 | 0.397 | 0.666 | 0.538 | 0.687 | 0.499 | 0.643 | – | – | – | – | – | 0.502 | 0.429 | 0.452 | 0.454 | 0.448
RERF-LC-KJ | 0.667 | 0.596 | 0.327 | 0.419 | 0.441 | 0.418 | 0.387 | 0.387 | 0.942 | 0.856 | 0.819 | 0.891 | 0.749 | 0.476 | 0.493 | 0.438 | 0.42 | 0.357
NCI-H522 | 1.09 | 0.983 | 0.737 | 0.677 | 0.688 | 0.777 | 0.744 | 0.572 | – | – | – | – | – | 0.87 | 0.802 | 1.05 | 0.963 | 0.765
NCI-H1666 | 0.813 | 0.708 | 0.46 | 0.601 | 0.535 | 0.574 | 0.575 | 0.552 | 1.07 | 0.975 | 1.01 | 1 | 0.907 | 0.985 | 0.843 | 0.774 | 0.854 | 0.833
